# System: Nrf2
# Experiment: Evaluation of Nrf2 activation ability (Nrf2d-LacZ / Keap1 HEK293 reporter, Beta-Glo luminescence)
# Type: cell-based, human
# Method: HEK293 cells constantly expressing Nrf2d-LacZ (human Nrf2 degron region fused to LacZ; Hirotsu et al, Genes to Cell, Vol. 16, pp. 406-415 (2011)) and human Keap1 were seeded 7,000 cells/27 μl/well on 384-well plates (Corning 384 Well Flat Clear Bottom White Polystyrene TC-Treated Microplates, Cat. #3707), and cultured overnight at 5% CO2, 37° C. in DMEM medium containing 10% FBS, 100 U/mL penicillin and 100 μg/mL streptomycin. 3 μL/well of a 0.1% DMSO solution of the compound of the invention was added to the cells, which were then cultured for 3 hours at 5% CO2, 37° C. Beta-Glo® reagent (Promega, Beta-Glo Assay System, Cat. #E4740) was added 15 μL/well and incubated for 1 hour at room temperature, and luminescence intensity was measured with a luminometer. Using CDDO-Im as a standard, Nrf2 activation ability was calculated given 100% as the luminescence under stimulus with 100 nM CDDO-Im.
# [1] = rated A/B/C, Pharmacological Test Example 1
# [2] = Pharmacological Test Example 1, rated A/B/C
Compound,EC50 [1] [µM],EC50 [2] [µM]
CC1COc2cc(-c3ccc4c(cnn4-c4cc(O)n[s+]4[O-])c3)cnc2N1 (stereo not drawn) [Example 10],< 1,–
COc1ccc2cnn(-c3cc(O)n[s+]3[O-])c2c1 (stereo not drawn) [Example 55],< 1,–
COc1ccncc1-c1ccc2c(cnn2-c2cc(O)n[s+]2[O-])c1 (stereo not drawn) [Example 47],1 to 5,–
CC(C)(C)OC(=O)N1CCCc2nn(-c3cc(O)n[s+]3[O-])cc2C1 (stereo not drawn) [Example 250],1 to 5,–
[O-][s+]1nc(O)cc1-n1ncc2cc(-c3ccc(Cl)cn3)ccc21 (stereo not drawn) [Example 121],1 to 5,–
[O-][s+]1nc(O)cc1-n1ncc2cc(-c3ccc(C4CC4)nc3)ccc21 (stereo not drawn) [Example 46],< 1,–
COc1c(Br)ccc2c1cnn2-c1cc(O)n[s+]1[O-] (stereo not drawn) [Example 207],< 1,–
[O-][s+]1nc(O)cc1-n1cc(C#Cc2ccc(Cl)nc2)cn1 (stereo not drawn) [Example 436],–,< 1
COc1ncc(-c2ccc3c(cnn3-c3cc(O)n[s+]3[O-])c2)cc1Cl (stereo not drawn) [Example 73],< 1,–
[O-][s+]1nc(O)cc1-n1cc(-c2ccccc2Oc2ccccc2)cn1 (stereo not drawn) [Example 335],–,1 to 5
[O-][s+]1nc(O)cc1-n1cc(-c2ccc(Oc3ccccc3)cc2)cn1 (stereo not drawn) [Example 377],–,< 1
O=C(c1ccc(-c2ccc3c(cnn3-c3cc(O)n[s+]3[O-])c2)cn1)N1CCCC1 (stereo not drawn) [Example 157],1 to 5,–
"COc1nc(-c2ccc(N3CCCC3)nc2)ccc1-c1cnn(-c2cc(O)n[s+]2[O-])c1 (single isomer, unassigned) [Example 453]",–,< 1
[O-][s+]1nc(O)cc1-n1cc(-c2ccc(Cl)nc2)cn1 (stereo not drawn) [Example 439],–,< 1
COc1cc(-c2cccnc2)cc2c1cnn2-c1cc(O)n[s+]1[O-] (stereo not drawn) [Example 199],1 to 5,–
N#Cc1cccc(-c2ccc3c(cnn3-c3cc(O)n[s+]3[O-])c2)n1 (stereo not drawn) [Example 120],1 to 5,–
O=C(C1CC1(F)F)N1CCOc2cc(-c3ccc4c(cnn4-c4cc(O)n[s+]4[O-])c3)cnc21 (stereo not drawn) [Example 151],< 1,–
Cc1nc2c(cc1-c1ccc3c(cnn3-c3cc(O)n[s+]3[O-])c1)OCCN2C (stereo not drawn) [Example 185],< 1,–
[O-][s+]1nc(O)cc1-n1cc(-c2ncccn2)cn1 (stereo not drawn) [Example 423],–,1 to 5
[O-][s+]1nc(O)cc1-n1ncc2c1CN(Cc1ccc(C(F)(F)F)nc1)C2 (stereo not drawn) [Example 265],5 to 10,–
CN1CCOc2ccc(-c3ccc4c(cnn4-c4cc(O)n[s+]4[O-])c3)nc21 (stereo not drawn) [Example 178],< 1,–
[O-][s+]1nc(O)cc1-n1cc(C2=Cc3ccccc3CC2)cn1 (stereo not drawn) [Example 381],–,< 1
[O-][s+]1nc(O)cc1-n1ncc2cc(-c3ccc(C4CC4)nc3)ncc21 (stereo not drawn) [Example 237],< 1,–
COc1cc2c(cnn2-c2cc(O)n[s+]2[O-])cc1C1=CCN(C(=O)OC(C)(C)C)CC1 (stereo not drawn) [Example 71],1 to 5,–
[O-][s+]1nc(O)cc1-n1ncc2cc(-c3cnc4c(c3)OCCCN4)ccc21 (stereo not drawn) [Example 190],< 1,–
O=C(c1ccccc1)N1CCC(c2ccc3c(cnn3-c3cc(O)n[s+]3[O-])c2)CC1 (stereo not drawn) [Example 168],5 to 10,–

Compound,EC50 [1] [µM],EC50 [2] [µM]
[O-][s+]1nc(O)cc1-n1ncc2cc(-c3ccc(N4CCOCC4)nc3)ccc21 (stereo not drawn) [Example 126],1 to 5,–
CN1CCN(c2cc(-c3ccc4c(cnn4-c4cc(O)n[s+]4[O-])c3)ccn2)CC1 (stereo not drawn) [Example 52],< 1,–
[O-][s+]1nc(O)cc1-n1ncc2cc(-c3cnc4c(c3)OCCN4C3CC3)ccc21 (stereo not drawn) [Example 149],< 1,–
[O-][s+]1nc(O)cc1-n1cc(-c2cnc(C3CC3)cn2)cn1 (stereo not drawn) [Example 414],–,< 1
[O-][s+]1nc(O)cc1-n1ncc2cc(-c3cncnc3)ccc21 (stereo not drawn) [Example 41],1 to 5,–
[O-][s+]1nc(O)cc1-n1cc(-c2ccc3cnccc3c2)cn1 (stereo not drawn) [Example 356],–,1 to 5
[O-][s+]1nc(O)cc1-n1ncc2cc(C(F)(F)F)ccc21 (stereo not drawn) [Example 14],< 1,–
"[O-][s+]1nc(O)cc1-n1cc2c(n1)CCN(Cc1ccccc1)C2 (single isomer, unassigned) [Example 256]",1 to 5,–
COc1cc(-c2ccnc(N3CCCC3)c2)cc2c1cnn2-c1cc(O)n[s+]1[O-] (stereo not drawn) [Example 194],< 1,–
[O-][s+]1nc(O)cc1-n1cc(-c2cccc3ncccc23)cn1 (stereo not drawn) [Example 355],–,1 to 5
CCOC(=O)C1CC=C(c2c(C)nn(-c3cc(O)n[s+]3[O-])c2C)CC1 (stereo not drawn) [Example 317],–,1 to 5
[O-][s+]1nc(O)cc1-n1cc(/C=C/c2ccccc2)cn1 (stereo not drawn) [Example 318],–,1 to 5
[O-][s+]1nc(O)cc1-n1cc(CCOc2cccnc2)cn1 (stereo not drawn) [Example 412],–,1 to 5
CC(C)CN1CCOc2cc(-c3ccc4c(cnn4-c4cc(O)n[s+]4[O-])c3)cnc21 (stereo not drawn) [Example 160],< 1,–
[O-][s+]1nc(O)cc1-n1ncc2cc(-c3ccccc3)ncc21 (stereo not drawn) [Example 233],< 1,–
[O-][s+]1nc(O)cc1-n1cc(-c2ccc(-c3ccccc3)cc2)cn1 (stereo not drawn) [Example 327],–,1 to 5
CC1(C)C(=O)N(c2cnn(-c3cc(O)n[s+]3[O-])c2)c2ccccc21 (stereo not drawn) [Example 420],–,1 to 5
COc1ccc(CN2CCc3c(cnn3-c3cc(O)n[s+]3[O-])C2)cn1 (stereo not drawn) [Example 261],1 to 5,–
COc1cc(-c2ccc(N3CCCCC3)nc2)c2cnn(-c3cc(O)n[s+]3[O-])c2c1 (stereo not drawn) [Example 180],< 1,–
"[O-][s+]1nc(O)cc1-n1ncc2cc(Br)ccc21 (stereo not drawn) [Example 2, 5-(5-bromoindazol-1-yl)-1-oxo-1,2-thiazol-3-ol]",< 1,–
"CN1CCOc2cc(-c3cc4cnn(-c5cc(O)n[s+]5[O-])c4cn3)cnc21 (single isomer, unassigned) [Example 243]",< 1,–
[O-][s+]1nc(O)cc1-n1ncc2c(-c3cccnc3)cccc21 (stereo not drawn) [Example 92],1 to 5,–
CC(C)(C)OC(=O)N1CCc2cn(-c3cc(O)n[s+]3[O-])nc2CC1 (stereo not drawn) [Example 244],1 to 5,–
[O-][s+]1nc(O)cc1-n1ncc2cc(C3CC3)ccc21 (stereo not drawn) [Example 27],1 to 5,–
Cc1cccc(C)c1COc1ccc(-c2cnn(-c3cc(O)n[s+]3[O-])c2)cc1 (stereo not drawn) [Example 376],–,1 to 5
"COc1cc(-c2ccc3c(cnn3-c3cc(O)n[s+]3[O-])c2)ccn1 (stereo not drawn) [Example 3, 5-[5-(2-methoxypyridin-4-yl)indazol-1-yl]-1-oxo-1,2-thiazol-3-ol]",< 1,–

Compound,EC50 [1] [µM],EC50 [2] [µM]
O=c1ccc(-c2ccc3c(cnn3-c3cc(O)n[s+]3[O-])c2)c[nH]1 (stereo not drawn) [Example 125],1 to 5,–
[O-][s+]1nc(O)cc1-n1ncc2ccccc21 (stereo not drawn) [Example 16],1 to 5,–
O=c1oc2cc(-c3cnn(-c4cc(O)n[s+]4[O-])c3)ccc2n1CC1CC1 (stereo not drawn) [Example 429],–,1 to 5
[O-][s+]1nc(O)cc1-n1ncc2cc(-c3cnc4c(c3)OCCN4CC3CCC3)ccc21 (stereo not drawn) [Example 162],< 1,–
O=C(NC1CCCCC1)N1CCC(c2ccc3c(cnn3-c3cc(O)n[s+]3[O-])c2)CC1 (stereo not drawn) [Example 159],5 to 10,–
[O-][s+]1nc(O)cc1-n1ncc2cc(-c3ccc(N4CCCC4)nc3)ccc21 (stereo not drawn) [Example 87],1 to 5,–
"CN1CCOc2cc(-c3ccc4c(cnn4-c4cc(O)n[s+]4[O-])c3)cnc21 (stereo not drawn) [Example 5, 5-[5-(4-methyl-2,3-dihydropyrido[3,2-b][1, 4]oxazin-7-yl)indazol-1-yl]-1-oxo-1,2-thiazol-3-ol]",< 1,–
CC(C)(C)OC(=O)N1CCc2nn(-c3cc(O)n[s+]3[O-])cc2C1 (stereo not drawn) [Example 248],1 to 5,–
CC(C)(C)OC(=O)N1CC=C(c2ccc3cnn(-c4cc(O)n[s+]4[O-])c3c2)CC1 (stereo not drawn) [Example 104],1 to 5,–
[O-][s+]1nc(O)cc1-n1cc(-c2ccc(C3CC3)nc2)cn1 (stereo not drawn) [Example 323],–,< 1
Cc1cc(OCCCS(C)(=O)=O)cc(C)c1-c1cccc(COc2ccc(-c3cnn(-c4cc(O)n[s+]4[O-])c3)cc2)c1 (stereo not drawn) [Example 339],–,1 to 5
CN(C)Cc1ccc(-c2cnn(-c3cc(O)n[s+]3[O-])c2)cc1 (stereo not drawn) [Example 405],–,1 to 5
CC(C)(C)OC(=O)N1CC=C(c2cnn(-c3cc(O)n[s+]3[O-])c2)CC1 (stereo not drawn) [Example 304],1 to 5,–
[O-][s+]1nc(O)cc1-n1cc(-c2ccc3c(c2)CCCC3)cn1 (stereo not drawn) [Example 342],–,< 1
[O-][s+]1nc(O)cc1-n1ncc2c(OCc3ccccc3)cccc21 (stereo not drawn) [Example 30],5 to 10,–
COc1cc(-c2cnc3c(c2)OCCN3C)c2cnn(-c3cc(O)n[s+]3[O-])c2c1 (stereo not drawn) [Example 174],1 to 5,–
[O-][s+]1nc(O)cc1-n1cc(-c2ccc(F)nc2)cn1 (stereo not drawn) [Example 438],–,1 to 5
CN1C(=O)CCc2cc(-c3ccc4c(cnn4-c4cc(O)n[s+]4[O-])c3)cnc21 (stereo not drawn) [Example 164],5 to 10,–
[O-][s+]1nc(O)cc1-n1ncc2cc(-c3cncc(N4CCCC4)c3)ccc21 (stereo not drawn) [Example 135],< 1,–
[O-][s+]1nc(O)cc1-n1cc(-c2ccc3cccnc3c2)cn1 (stereo not drawn) [Example 383],–,< 1
[O-][s+]1nc(O)cc1-n1cc2cc(-c3cnccn3)ccc2n1 (stereo not drawn) [Example 417],–,1 to 5
[O-][s+]1nc(O)cc1-n1ncc2ccc(C3=CCC(F)(F)CC3)cc21 (stereo not drawn) [Example 102],1 to 5,–
[O-][s+]1nc(O)cc1-n1ncc2ccccc21 (stereo not drawn) [Example 17],5 to 10,–
[O-][s+]1nc(O)cc1-n1ncc2c(-c3ccc(C4CC4)nc3)cccc21 (stereo not drawn) [Example 98],1 to 5,–
[O-][s+]1nc(O)cc1-n1ncc2cc(-c3cccnc3)ncc21 (stereo not drawn) [Example 235],1 to 5,–
[O-][s+]1nc(O)cc1-n1cc(-c2ccc3ccncc3c2)cn1 (stereo not drawn) [Example 351],–,1 to 5
